Consider seven cell lines from the supplement of paper PMC10307832.

Holding throughout (assay): relative viability (nuclei count vs DMSO), 5 days (fraction); higher = more cells survive
Compound in the assay “Olaparib + AZD7762”: O=C(c1cc(Cc2n[nH]c(=O)c3ccccc23)ccc1F)N1CCN(C(=O)C2CC2)CC1 [Olaparib] + NC(=O)Nc1cc(-c2cccc(F)c2)sc1C(=O)N[C@H]1CCCNC1 [AZD7762] (partner 0.2 µM)
In a few lines:
(§1)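 Values are medians from duplicate plates. Each reflects relative viability, defined as the nuclei count of treated wells over that of vehicle wells. Lung cancer cell lines in 1536-well plates were pin-tool dosed one day after seeding with one drug alone or with a fixed anchor-drug dose plus five library-drug doses (not always all listed) in √10 steps, then fixed, stained and imaged at 4× after 5 days.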

Compound in the assay “Carfilzomib + Bortezomib”: CC(C)C[C@H](NC(=O)[C@H](CCc1ccccc1)NC(=O)CN1CCOCC1)C(=O)N[C@@H](Cc1ccccc1)C(=O)N[C@@H](CC(C)C)C(=O)[C@@]1(C)CO1 [Carfilzomib] + CC(C)C[C@H](NC(=O)[C@H](Cc1ccccc1)NC(=O)c1cnccn1)B(O)O [Bortezomib] (partner 0.002 µM)
In a few lines: as §1

Compound in the assay “Olaparib + OSI-027”: O=C(c1cc(Cc2n[nH]c(=O)c3ccccc23)ccc1F)N1CCN(C(=O)C2CC2)CC1 [Olaparib] + COc1cccc2cc(-c3nc([C@H]4CC[C@H](C(=O)O)CC4)n4ncnc(N)c34)[nH]c12 [OSI-027] (partner 0.5 µM)
The method in brief: as §1

Compound in the assay “Carfilzomib + Foretinib”: CC(C)C[C@H](NC(=O)[C@H](CCc1ccccc1)NC(=O)CN1CCOCC1)C(=O)N[C@@H](Cc1ccccc1)C(=O)N[C@@H](CC(C)C)C(=O)[C@@]1(C)CO1 [Carfilzomib] + COc1cc2c(Oc3ccc(NC(=O)C4(C(=O)Nc5ccc(F)cc5)CC4)cc3F)ccnc2cc1OCCCN1CCOCC1 [Foretinib] (partner 0.25 µM)
In a few lines: as §1

In the case of HCC-366, the relative viability with Olaparib + AZD7762 (first compound 0.08 µM) is 0.258; with Olaparib + AZD7762 (first compound 0.253 µM), 0.196; in the assay with Olaparib + AZD7762 (first compound 2.53 µM) it was 0.168; with Olaparib + AZD7762 (first compound 8 µM), 0.0718; with Carfilzomib + Bortezomib (first compound 0.001 µM), 0.891; with Carfilzomib + Bortezomib (first compound 0.003162 µM), 0.966. Also, the relative viability with Carfilzomib + Bortezomib (first compound 0.01 µM) came to 1.07; in the assay with Carfilzomib + Bortezomib (first compound 0.03162 µM) it was 0.196; with Carfilzomib + Bortezomib (first compound 0.1 µM), 0.0175; in the assay with Olaparib + OSI-027 (first compound 0.08 µM), 0.856; in the assay with Olaparib + OSI-027 (first compound 0.253 µM), 0.796; in the assay with Olaparib + OSI-027 (first compound 2.53 µM), 0.762. Moreover, the relative viability amounted to 0.568 with Olaparib + OSI-027 (first compound 8 µM); 0.933 in the assay with Carfilzomib + Foretinib (first compound 0.001 µM); 0.963 in the assay with Carfilzomib + Foretinib (first compound 0.003162 µM); 0.916 with Carfilzomib + Foretinib (first compound 0.01 µM); 0.648 with Carfilzomib + Foretinib (first compound 0.03162 µM); 0.121 in the assay with Carfilzomib + Foretinib (first compound 0.1 µM).
For HOP-62, the relative viability in the assay with Olaparib + AZD7762 (first compound 0.08 µM) was found to be 0.43; with Olaparib + AZD7762 (first compound 0.253 µM), 0.614; in the assay with Olaparib + AZD7762 (first compound 2.53 µM), 0.463; with Olaparib + AZD7762 (first compound 8 µM), 0.155; with Carfilzomib + Bortezomib (first compound 0.001 µM), 0.531; with Carfilzomib + Bortezomib (first compound 0.003162 µM), 0.475. Besides, the relative viability with Carfilzomib + Bortezomib (first compound 0.01 µM) was determined as 0.425; with Carfilzomib + Bortezomib (first compound 0.03162 µM), 0.0851; in the assay with Carfilzomib + Bortezomib (first compound 0.1 µM) it was 0.0746; with Olaparib + OSI-027 (first compound 0.08 µM), 0.863; with Olaparib + OSI-027 (first compound 0.253 µM), 0.801; with Olaparib + OSI-027 (first compound 2.53 µM), 0.809. In addition, the relative viability was found to be 0.712 with Olaparib + OSI-027 (first compound 8 µM); 1.12 with Carfilzomib + Foretinib (first compound 0.001 µM); 1.13 with Carfilzomib + Foretinib (first compound 0.003162 µM); 0.938 with Carfilzomib + Foretinib (first compound 0.01 µM); 0.328 in the assay with Carfilzomib + Foretinib (first compound 0.03162 µM); 0.0784 with Carfilzomib + Foretinib (first compound 0.1 µM).
Regarding NCI-H1734, the relative viability stood at 0.611 with Olaparib + AZD7762 (first compound 0.08 µM); 0.49 with Olaparib + AZD7762 (first compound 0.253 µM); 0.441 with Olaparib + AZD7762 (first compound 2.53 µM); 0.333 with Olaparib + AZD7762 (first compound 8 µM); 0.848 with Carfilzomib + Bortezomib (first compound 0.001 µM); 1.1 in the assay with Carfilzomib + Bortezomib (first compound 0.003162 µM). Also, the relative viability with Carfilzomib + Bortezomib (first compound 0.01 µM) was found to be 0.484; with Carfilzomib + Bortezomib (first compound 0.03162 µM) it was 0.147; with Carfilzomib + Bortezomib (first compound 0.1 µM), 0.146; with Olaparib + OSI-027 (first compound 0.08 µM), 0.662; with Olaparib + OSI-027 (first compound 0.253 µM) it was 0.516; with Olaparib + OSI-027 (first compound 2.53 µM) it was 0.486. Further, the relative viability in the assay with Olaparib + OSI-027 (first compound 8 µM) amounted to 0.374; in the assay with Carfilzomib + Foretinib (first compound 0.001 µM) it was 0.876; with Carfilzomib + Foretinib (first compound 0.003162 µM), 1.06; with Carfilzomib + Foretinib (first compound 0.01 µM), 0.954; with Carfilzomib + Foretinib (first compound 0.03162 µM), 0.401; in the assay with Carfilzomib + Foretinib (first compound 0.1 µM), 0.105.
As for ChaGo-K-1, the relative viability with Olaparib + AZD7762 (first compound 0.08 µM) stood at 0.955; with Olaparib + AZD7762 (first compound 0.253 µM), 0.785; in the assay with Olaparib + AZD7762 (first compound 2.53 µM), 0.811; with Olaparib + AZD7762 (first compound 8 µM), 0.626; with Carfilzomib + Bortezomib (first compound 0.003162 µM) it was 1.25; with Carfilzomib + Bortezomib (first compound 0.01 µM), 0.851. For the same cell line, the relative viability in the assay with Carfilzomib + Bortezomib (first compound 0.03162 µM) turned out to be 0.501; with Carfilzomib + Bortezomib (first compound 0.1 µM), 0.381; with Olaparib + OSI-027 (first compound 0.08 µM), 0.649; with Olaparib + OSI-027 (first compound 0.253 µM), 0.506; in the assay with Olaparib + OSI-027 (first compound 2.53 µM), 0.533; in the assay with Olaparib + OSI-027 (first compound 8 µM), 0.464. Also, the relative viability with Carfilzomib + Foretinib (first compound 0.001 µM) was determined as 0.941; with Carfilzomib + Foretinib (first compound 0.003162 µM), 0.991; in the assay with Carfilzomib + Foretinib (first compound 0.01 µM) it was 0.859; in the assay with Carfilzomib + Foretinib (first compound 0.03162 µM) it was 0.62; with Carfilzomib + Foretinib (first compound 0.1 µM), 0.172.
Regarding NCI-H2405, the relative viability with Olaparib + AZD7762 (first compound 0.08 µM) was 0.86; with Olaparib + AZD7762 (first compound 0.253 µM), 0.741; in the assay with Olaparib + AZD7762 (first compound 2.53 µM) it was 0.632; with Olaparib + AZD7762 (first compound 8 µM) it was 0.636; in the assay with Carfilzomib + Bortezomib (first compound 0.001 µM) it was 0.926; with Carfilzomib + Bortezomib (first compound 0.003162 µM) it was 1.01. In addition, the relative viability with Carfilzomib + Bortezomib (first compound 0.01 µM) amounted to 1.06; with Carfilzomib + Bortezomib (first compound 0.03162 µM), 0.15; in the assay with Carfilzomib + Bortezomib (first compound 0.1 µM), 0.202; with Olaparib + OSI-027 (first compound 0.08 µM), 0.717; in the assay with Olaparib + OSI-027 (first compound 0.253 µM) it was 0.625; with Olaparib + OSI-027 (first compound 2.53 µM) it was 0.636. Besides, the relative viability with Olaparib + OSI-027 (first compound 8 µM) worked out at 0.583; in the assay with Carfilzomib + Foretinib (first compound 0.003162 µM) it was 1.06; with Carfilzomib + Foretinib (first compound 0.01 µM), 1.07; with Carfilzomib + Foretinib (first compound 0.03162 µM), 1.07; in the assay with Carfilzomib + Foretinib (first compound 0.1 µM) it was 0.305.
For NCI-H727, the relative viability in the assay with Olaparib + AZD7762 (first compound 0.08 µM) was 0.509; with Olaparib + AZD7762 (first compound 0.253 µM), 0.706; with Olaparib + AZD7762 (first compound 2.53 µM) it was 0.626; in the assay with Olaparib + AZD7762 (first compound 8 µM), 0.676; in the assay with Carfilzomib + Bortezomib (first compound 0.001 µM) it was 0.72; in the assay with Carfilzomib + Bortezomib (first compound 0.003162 µM), 0.77. Moreover, the relative viability came out at 0.795 with Carfilzomib + Bortezomib (first compound 0.01 µM); 0.3 in the assay with Carfilzomib + Bortezomib (first compound 0.03162 µM); 0.147 in the assay with Carfilzomib + Bortezomib (first compound 0.1 µM); 0.91 in the assay with Olaparib + OSI-027 (first compound 0.08 µM); 0.619 in the assay with Olaparib + OSI-027 (first compound 0.253 µM); 0.546 with Olaparib + OSI-027 (first compound 2.53 µM). In addition, the relative viability worked out at 0.471 in the assay with Olaparib + OSI-027 (first compound 8 µM); 0.758 in the assay with Carfilzomib + Foretinib (first compound 0.001 µM); 0.891 in the assay with Carfilzomib + Foretinib (first compound 0.003162 µM); 0.996 with Carfilzomib + Foretinib (first compound 0.01 µM); 0.617 in the assay with Carfilzomib + Foretinib (first compound 0.03162 µM); 0.397 with Carfilzomib + Foretinib (first compound 0.1 µM).
With A-427, the relative viability was 0.786 with Olaparib + AZD7762 (first compound 0.08 µM); 0.671 with Olaparib + AZD7762 (first compound 0.253 µM); 0.579 in the assay with Olaparib + AZD7762 (first compound 2.53 µM); 0.427 with Olaparib + AZD7762 (first compound 8 µM); 0.995 with Carfilzomib + Bortezomib (first compound 0.001 µM); 0.963 in the assay with Carfilzomib + Bortezomib (first compound 0.003162 µM). For the same cell line, the relative viability amounted to 0.727 in the assay with Carfilzomib + Bortezomib (first compound 0.01 µM); 0.436 in the assay with Carfilzomib + Bortezomib (first compound 0.03162 µM); 0.131 with Carfilzomib + Bortezomib (first compound 0.1 µM); 0.558 with Olaparib + OSI-027 (first compound 0.08 µM); 0.469 with Olaparib + OSI-027 (first compound 0.253 µM); 0.396 with Olaparib + OSI-027 (first compound 2.53 µM). Also, the relative viability in the assay with Olaparib + OSI-027 (first compound 8 µM) turned out to be 0.389; with Carfilzomib + Foretinib (first compound 0.001 µM) it was 1.02; in the assay with Carfilzomib + Foretinib (first compound 0.003162 µM) it was 1.13; with Carfilzomib + Foretinib (first compound 0.01 µM) it was 1.09; with Carfilzomib + Foretinib (first compound 0.03162 µM), 0.474; in the assay with Carfilzomib + Foretinib (first compound 0.1 µM), 0.121.
